The values below come from patent US20130172340A1, “SUBSTITUTED 2-(9H-PURIN-9-YL) ACETIC ACID ANALOGUES AS INHIBITORS OF STAT3” (University of Central Flordia Research Foundation,, priority 2010, published 2013).

Test [1] deals with NIH3T3. Put plainly: CyQuant cell viability and proliferation assay, NIH3T3. The test is classed as cell-based. Conditions: Mus musculus, 48 h, CyQuant viability. Here is the method: (§1) Briefly, human breast (MDA-MB-231), pancreatic (Panc-1), and prostate (DU145) cancer cells, the v-Src transformed (NIH3T3/v-Src) fibroblasts or their normal counterparts (NIH3T3), and the murine thymic stromal epithelial cells (TE-71) were treated or not treated with 30-500 μM of the representative disclosed compounds, as indicated, for 48 h and assessed for viability using CyQuant cell proliferation kit. Values, mean (SD of 3 independent experiments each in triplicate.
(§2) Cells in culture in 6-well or 96-well plates were treated with or without agents for 24-144 h and subjected to CyQuant cell proliferation assay (Invitrogen Corp/Life Technologies Corp, Carlsbad, Calif.). IC50 values shown below were derived from the plot of viability versus drug concentration.
(§3) As aberrant STAT3 activity promotes cancer cell growth and survival, and tumor angiogenesis and metastasis (Turkson et al., 2004; Yue et al., 2009; Turkson et al., 2004; Turkson et al., 2001; Siddiquee et al., 2007; Siddiquee et al., 2007(b); Song et al., 2005; Turkson et al., 2005), the sensitivity of various cell lines to the purine scaffold treatment was tested. […] (see also Table 2). The data represented by FIG. 4 were the results of experiments performed in triplicate.

For test [2], the system named is TE-71. The test is described as follows: CyQuant cell viability and proliferation assay, TE-71. The test is classed as cell-based, murine. Conditions: Mus musculus; 48 h, CyQuant viability. Here is the method:
as §1, §2, §3

Test [3] deals with MDA-MB-231. The test is described as follows: CyQuant cell viability and proliferation assay, MDA-MB-231. The test is classed as cell-based. The note with it: Homo sapiens, 48 h, CyQuant viability. The procedure:
as §1, §2, §3

The test system of test [4] is Panc-1. Put plainly: CyQuant cell viability and proliferation assay, Panc-1. The test is classed as cell-based. Conditions: Homo sapiens, 48 h, CyQuant viability. Here is the method: as §1, §2, §3
Test [5] has as its system DU 145. The test is described as follows: CyQuant cell viability and proliferation assay, DU 145. Conditions: Homo sapiens, 48 h, CyQuant viability. It counts as cell-based. Here is the method: as §1, §2, §3
The test system of test [6] is NIH3T3/v-Src. Put plainly: CyQuant cell viability and proliferation assay, NIH3T3/v-Src. The note with it: Mus musculus, 48 h, CyQuant viability. The test is classed as cell-based. The procedure: as §1, §2, §3
Test [7] has as its system pY705STAT3. The test is described as follows: Immunoblotting of constitutive STAT3 phosphorylation in NIH3T3/v-Src. The test is classed as cell-based, mouse. Conditions: for constitutive STAT3 phosphorylation: NIH3T3/v-Src, 40 or 50 μM, 12, 24, or 48 h. Here is the method:
(§4) Positions of proteins in gel are labeled; control lanes (0) are whole-cell lysates from 0.05% DMSO-treated cells. Data are representative of 3-4 independent determinations. Further discussion on the figure is provided in the Experimental section below.
(§5) Immunoprecipitation, and SDS/PAGE and Western blotting analysis were performed as previously described (6, 16). Primary antibodies used were anti-STAT3, pY705STAT3, pY416Src, Src, pErk1/2, Erk1/2, pSTAT1, STAT1, (Cell Signaling), and antiphosphotyrosine, clone 4G10 (Upstate Biotechnology, Lake Placid, N.Y.). Where appropriate, cells were stimulated for 12 min by 9 ng/μl rhEGF (12 μl into 3 ml culture) prior to preparation of whole-cell lysates for immunoprecipitation and/or immunoblotting analysis.
(In general: Immunoblotting shows a protein as a band on a membrane.)

Test [8] concerns pY705STAT3. Put plainly: Immunoblotting of constitutive STAT3 phosphorylation in MDA-MB-231. The test is classed as cell-based, human. Conditions: for constitutive STAT3 phosphorylation: MDA-MB-231, 40 or 50 μM, 12, 24, or 48 h. Here is the method:
as §4, §5

The subject of test [9] is pErk1/2. Put plainly: Immunoblotting of constitutive phospho-ErkMAPK in NIH3T3/v-Src and MDA-MB-231. Conditions: same treatments, all panels of FIG. 2. It counts as cell-based. The procedure:
as §4, §5

In test [10] the test system is pSrc. The test is described as follows: Immunoblotting of constitutive pSrc in NIH3T3/v-Src and MDA-MB-231. The test is classed as cell-based. Conditions: same treatments, all panels of FIG. 2. The procedure: as §4, §5
Test [11] relates to DU145, MDA-MB-231, Panc-1 and NIH3T3/v-Src cells. Put plainly: CyQuant cell proliferation assay, cells that harbor constitutively active STAT3. It counts as cell-based. Conditions: 48 hours, 30-500 μM, DU145, MDA-MB-231, Panc-1, NIH3T3/v-Src. The text has this: Values, mean (SD of 3 independent experiments each in triplicate.
IC50 values shown below were derived from the plot of viability versus drug concentration.
(see also Table 2). The data represented by FIG. 4 were the results of experiments performed in triplicate.

For test [12], the target named is STAT3 (Mus musculus, UniProt P42227). Put plainly: Surface plasmon resonance analysis of binding to STAT3. Further details: His; made in house; host or cells: E. coli BL21(DE3); species or system murine. Conditions: SPR, purified STAT3 immobilized on HisCap Sensor Chip. Here is the method: Coding regions for the murine STAT3 protein and STAT3 SH2 domain were amplified by PCR and cloned into vectors pET-44 Ek/LIC (Novagen) and pET SUMO (Invitrogen), respectively. […] Clones were sequenced to verify the correct sequences and orientation. His-tagged recombinant proteins were expressed in BL21(DE3) cells, and purified on Ni-ion sepharose column.
Surface Plasmon resonance analysis was performed to characterize the binding of compounds to STAT3, as previously reported (16). SensiQ and its analysis software Qdat (ICX Technologies, Oklahoma City, Okla.) were used to analyze the interaction between agents and the STAT3 protein and to determine the binding affinity. Purified STAT3 was immobilized on a HisCap Sensor Chip by injecting 50 μg/ml of STAT3 onto the chip. Various concentrations of compounds in running buffer (1×PBS, 0.5% DMSO) were passed over the sensor chip to produce response signals. The association and dissociation rate constants were calculated using the Qdat software. The ratio of the association and dissociation rate constants was determined as the affinity (KD).
(SPR reads the build-up and loss of mass on a sensor chip optically.)

The test system of test [13] is pY705-STAT3. Put plainly: Immunoblotting of EGF-induced STAT3 phosphorylation in NIH3T3/hEGFR. It counts as cell-based, mouse. The note with it: EGF-stimulated. Here is the method: As indicated, the cells were treated or untreated with the indicated agents at 40 or 50 μM for the indicated times and probing for pY705STAT3, STAT3, pErk1/2, Erk1/2, pSrc, Src, pSTAT1, STAT1, or pTyr (clone 4G10). Positions of proteins in gel are labeled; control lanes (0) are whole-cell lysates from 0.05% DMSO-treated cells. Data are representative of 3-4 independent determinations. Further discussion on the figure is provided in the Experimental section below.
as §5
The effect of 8bj and 17b on ligand-stimulated STAT activation was also examined. […] These findings were consistent with other reports regarding other SH2 domain binding STAT3 inhibitors. (Turkson et al., 2001; Siddiquee et al., 2007; Siddiquee et al., 2007(b)).

Sequence of STAT3 (P42227 whole entry, the tested form may be a part): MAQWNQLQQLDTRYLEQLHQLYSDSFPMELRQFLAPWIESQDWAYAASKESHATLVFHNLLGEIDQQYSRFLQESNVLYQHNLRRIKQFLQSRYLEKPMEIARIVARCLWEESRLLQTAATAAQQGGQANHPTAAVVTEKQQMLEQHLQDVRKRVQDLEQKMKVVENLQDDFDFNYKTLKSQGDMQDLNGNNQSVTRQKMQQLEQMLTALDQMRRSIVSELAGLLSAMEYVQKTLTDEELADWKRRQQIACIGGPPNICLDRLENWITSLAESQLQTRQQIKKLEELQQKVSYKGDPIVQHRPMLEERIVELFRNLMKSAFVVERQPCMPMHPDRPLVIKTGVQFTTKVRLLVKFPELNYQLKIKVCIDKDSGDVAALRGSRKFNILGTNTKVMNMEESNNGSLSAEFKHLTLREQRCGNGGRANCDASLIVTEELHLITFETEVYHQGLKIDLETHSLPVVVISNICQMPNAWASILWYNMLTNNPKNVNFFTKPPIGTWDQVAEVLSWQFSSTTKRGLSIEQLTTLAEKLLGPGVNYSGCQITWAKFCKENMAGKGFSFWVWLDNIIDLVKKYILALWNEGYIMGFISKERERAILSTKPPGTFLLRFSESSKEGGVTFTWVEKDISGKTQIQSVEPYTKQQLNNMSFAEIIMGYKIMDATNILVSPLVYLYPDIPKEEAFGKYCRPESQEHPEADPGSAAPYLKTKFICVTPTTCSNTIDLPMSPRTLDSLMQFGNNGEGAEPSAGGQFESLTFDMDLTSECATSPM

For the compound `O=C(O)Cn1cnc2c(NC3CCCC3)nc(NCc3ccc(C4CCCCC4)cc3)nc21` [8be, 2-(2-((4-cyclohexylbenzyl)amino)-6-(cyclopentylamino)-9H-purin-9-yl)acetic acid], the IC50 (usually the concentration that inhibits the measured activity by half) was more than 500 µM in [1]; more than 500 µM in test [2]; 145 ± 4.4 µM in [3]; 176 ± 5.3 µM in test [4]; 68.6 ± 1.8 µM in [5]; 100 ± 2.2 µM in [6]. The “STAT3 phosphorylation during prolonged treatment” value in test [7] (NIH3T3/v-Src fibroblasts, time course) was “temporarily restored”. The “constitutive STAT3 phosphorylation” value in test [7] and in test [8] was “inhibition of constitutive STAT3 phosphorylation” in each case. Moreover, the “time after treatment at which STAT3 phosphorylation was inhibited” value in test [8] (MDA-MB-231, time course) lay in the range of 15 to 30 min. Moreover, in test [8] (MDA-MB-231, time course, 6 h), the “STAT3 phosphorylation after 6 h of treatment” value was “restoration of STAT3 phosphorylation”. Further, the “constitutive levels of phospho-ErkMAPK (pErk1/2)” value in test [9] is “no effect”. The “constitutive levels of Src (pSrc)” value in test [10] was “no effect”. Moreover, the malignant cell viability result in test [11] is “decrease in malignant cell viability”. In test [12], the equilibrium dissociation constant (Kd) (usually the equilibrium constant for the complex coming apart) was 16.7 µM.
With `CC(C)CNc1nc(NCc2ccc(C3CCCCC3)cc2)nc2c1ncn2CC(=O)O` [8bj, 2-(2-((4-cyclohexylbenzyl)amino)-6-(isobutylamino)-9H-purin-9-yl)acetic acid], the half-maximal inhibitory concentration (IC50) in test [1] is more than 500 µM; in test [2], more than 500 µM; in test [3] it was 66.1 ± 2.1 µM; in test [4] it was 77.2 ± 1.9 µM; in test [5] it was 65.3 ± 2.3 µM; in test [6], 41.1 ± 4.6 µM. For the same compound, the “constitutive STAT3 phosphorylation” value in test [7] and in test [8] was “inhibition of constitutive STAT3 phosphorylation” each time. In addition, the “constitutive levels of phospho-ErkMAPK (pErk1/2)” value in [9] is “no effect”. Further, in test [10], the “constitutive levels of Src (pSrc)” value is “no effect”. For the same compound, in test [13], the “epidermal growth factor (EGF)-induced STAT3 phosphorylation” value was “selectively inhibited”. The malignant cell viability entry in [11] is “decrease in malignant cell viability”. The compound also returned a Kd in test [12] of 39 µM.
